{"source": "PubChem BioAssay (NCI)", "assay_in_all_cases": "NCI anticancer screen, dose series, 48 h", "key": {"[1]": {"tested_on": "786-0 renal"}, "[2]": {"tested_on": "OVCAR-3 ovarian"}, "[3]": {"tested_on": "MOLT-4 leukemia"}, "[4]": {"tested_on": "UACC-257 melanoma"}, "[5]": {"tested_on": "OVCAR-5 ovarian"}, "[6]": {"tested_on": "OVCAR-8 ovarian"}, "[7]": {"tested_on": "HOP-92 NSCLC"}, "[8]": {"tested_on": "HCT-116 colon"}, "[9]": {"tested_on": "HCT-15 colon"}, "[10]": {"tested_on": "SK-MEL-5 melanoma"}, "[11]": {"tested_on": "SR leukemia"}, "[12]": {"tested_on": "HS 578T breast"}, "[13]": {"tested_on": "CCRF-CEM leukemia"}, "[14]": {"tested_on": "KM12 colon"}, "[15]": {"tested_on": "NCI/ADR-RES ovarian"}, "[16]": {"tested_on": "U251 CNS"}, "[17]": {"tested_on": "LOX IMVI melanoma"}, "[18]": {"tested_on": "SNB-75 CNS"}, "[19]": {"tested_on": "TK-10 renal"}, "[20]": {"tested_on": "IGROV1 ovarian"}, "[21]": {"tested_on": "SF-539 CNS"}, "[22]": {"tested_on": "NCI-H226 lung"}, "[23]": {"tested_on": "DU-145 prostate"}, "[24]": {"tested_on": "UO-31 renal"}, "[25]": {"tested_on": "HL-60(TB) leukemia"}, "[26]": {"tested_on": "ACHN renal"}, "[27]": {"tested_on": "UACC-62 melanoma"}, "[28]": {"tested_on": "SK-MEL-2 melanoma"}, "[29]": {"tested_on": "K-562 leukemia"}}, "note": "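Results reflect a 48-hour exposure of cells in 96-well plates to compound at five concentrations. At the GI50, growth is halved. TGI denotes the concentration required for complete inhibition of growth.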", "data": [{"smiles": "O=C1/C(=C/c2ccc(Cl)cc2)COc2ccc(O)cc21", "values": [{"measurement": "GI50", "setting": "[1]", "result": 2.04, "unit": "µM"}, {"measurement": "TGI", "setting": "[1]", "result": 4.58, "unit": "µM"}, {"measurement": "GI50", "setting": "[2]", "result": 1.84, "unit": "µM"}, {"measurement": "TGI", "setting": "[2]", "result": 3.55, "unit": "µM"}, {"measurement": "GI50", "setting": "[3]", "result": 1.84, "unit": "µM"}, {"measurement": "TGI", "setting": "[3]", "result": 8.23, "unit": "µM"}, {"measurement": "GI50", "setting": "[4]", "result": 3.16, "unit": "µM"}, {"measurement": "TGI", "setting": "[4]", "result": 13, "unit": "µM"}, {"measurement": "GI50", "setting": "[5]", "result": 2.44, "unit": "µM"}, {"measurement": "TGI", "setting": "[5]", "result": 6.81, "unit": "µM"}, {"measurement": "GI50", "setting": "[6]", "result": 3, "unit": "µM"}, {"measurement": "TGI", "setting": "[6]", "result": 11, "unit": "µM"}, {"measurement": "GI50", "setting": "[7]", "result": 8.84, "unit": "µM"}, {"measurement": "TGI", "setting": "[7]", "result": 37.6, "unit": "µM"}, {"measurement": "GI50", "setting": "[8]", "result": 1.61, "unit": "µM"}, {"measurement": "TGI", "setting": "[8]", "result": 3.08, "unit": "µM"}, {"measurement": "GI50", "setting": "[9]", "result": 1.84, "unit": "µM"}, {"measurement": "TGI", "setting": "[9]", "result": 4.04, "unit": "µM"}, {"measurement": "GI50", "setting": "[10]", "result": 2.32, "unit": "µM"}, {"measurement": "TGI", "setting": "[10]", "result": 5.37, "unit": "µM"}, {"measurement": "GI50", "setting": "[11]", "result": 0.663, "unit": "µM"}, {"measurement": "TGI", "setting": "[11]", "result": 5.3, "unit": "µM"}, {"measurement": "GI50", "setting": "[12]", "result": 3.22, "unit": "µM"}, {"measurement": "TGI", "setting": "[12]", "result": 18.1, "unit": "µM"}, {"measurement": "GI50", "setting": "[13]", "result": 0.291, "unit": "µM"}, {"measurement": "TGI", "setting": "[13]", "result": 1.82, "unit": "µM"}, {"measurement": "GI50", "setting": "[14]", "result": 2.04, "unit": "µM"}, {"measurement": "TGI", "setting": "[14]", "result": 4.46, "unit": "µM"}, {"measurement": "GI50", "setting": "[15]", "result": 2.99, "unit": "µM"}, {"measurement": "TGI", "setting": "[15]", "result": 9.13, "unit": "µM"}, {"measurement": "GI50", "setting": "[16]", "result": 1.52, "unit": "µM"}, {"measurement": "TGI", "setting": "[16]", "result": 2.84, "unit": "µM"}, {"measurement": "GI50", "setting": "[17]", "result": 1.74, "unit": "µM"}, {"measurement": "TGI", "setting": "[17]", "result": 3.18, "unit": "µM"}, {"measurement": "GI50", "setting": "[18]", "result": 12.5, "unit": "µM"}, {"measurement": "TGI", "setting": "[18]", "result": 26.3, "unit": "µM"}, {"measurement": "GI50", "setting": "[19]", "result": 3.33, "unit": "µM"}, {"measurement": "TGI", "setting": "[19]", "result": 13.4, "unit": "µM"}, {"measurement": "GI50", "setting": "[20]", "result": 1.67, "unit": "µM"}, {"measurement": "TGI", "setting": "[20]", "result": 3.31, "unit": "µM"}, {"measurement": "GI50", "setting": "[21]", "result": 1.8, "unit": "µM"}, {"measurement": "TGI", "setting": "[21]", "result": 3.56, "unit": "µM"}, {"measurement": "GI50", "setting": "[22]", "result": 2.68, "unit": "µM"}, {"measurement": "TGI", "setting": "[22]", "result": 7.61, "unit": "µM"}, {"measurement": "GI50", "setting": "[23]", "result": 3.69, "unit": "µM"}, {"measurement": "TGI", "setting": "[23]", "result": 13, "unit": "µM"}, {"measurement": "GI50", "setting": "[24]", "result": 1.61, "unit": "µM"}, {"measurement": "TGI", "setting": "[24]", "result": 3.99, "unit": "µM"}, {"measurement": "GI50", "setting": "[25]", "result": 1.36, "unit": "µM"}, {"measurement": "TGI", "setting": "[25]", "result": 4.36, "unit": "µM"}, {"measurement": "GI50", "setting": "[26]", "result": 2.39, "unit": "µM"}, {"measurement": "TGI", "setting": "[26]", "result": 5.68, "unit": "µM"}, {"measurement": "GI50", "setting": "[27]", "result": 2.23, "unit": "µM"}, {"measurement": "TGI", "setting": "[27]", "result": 5.46, "unit": "µM"}, {"measurement": "GI50", "setting": "[28]", "result": 12.3, "unit": "µM"}, {"measurement": "TGI", "setting": "[28]", "result": 28.5, "unit": "µM"}, {"measurement": "GI50", "setting": "[29]", "result": 2.55, "unit": "µM"}, {"measurement": "TGI", "setting": "[29]", "result": 25.8, "unit": "µM"}]}]}
